Results published in the supplement of paper PMC11281043.
± gives the standard deviation of the averaged measurements.

Columns and labels:
Details in all cases: exposure: 6-8 hpf to 5 dpf, scored at 6 dpf
Danio rerio embryo/larva [1] = experiment: BMC edema; higher = less potent
Description: (§1)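 Zebrafish embryos (with chorion) were exposed from 6-8 hpf to each PFAS (8-point half-log series, top concentration up to 100 uM, 0.4% DMSO, sealed plates, 26 C; n = 6 embryos per concentration), rinsed at 5 dpf and scored at 6 dpf by two blinded observers for mortality, hatching and malformations. Endpoint scores are the % of living larvae affected (dead larvae excluded; […]). Curves were fitted with tcpl (cutoff 16%), and the BMC is the concentration at a benchmark response of 21.6%.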

Danio rerio embryo/larva [2] = experiment: BMC craniofacial defects; higher = less potent
Description: as §1

Danio rerio embryo/larva [3] = experiment: BMC swim bladder non-inflation; higher = less potent
Description: as §1

Danio rerio embryo/larva [4] = experiment: BMC any abnormality; max tested concentration (log10 uM): 2; higher = less potent
Description: as §1

Danio rerio embryo/larva [5] = experiment: max % larvae unhatched across tested concentrations; max tested concentration (log10 uM): 2; higher = more toxic
Danio rerio embryo/larva [6] = experiment: max % larvae dead across tested concentrations; max tested concentration (log10 uM): 2; higher = more toxic; extreme values may be limits of the assay
Danio rerio embryo/larva [7] = experiment: max % larvae with any abnormality across tested concentrations; max tested concentration (log10 uM): 2; higher = more toxic; extreme values may be limits of the assay
Danio rerio embryo/larva [8] = experiment: BMC mortality; max tested concentration (log10 uM): 2; higher = less potent
Description: as §1

Danio rerio embryo/larva [9] = experiment: BMC general abnormality; higher = less potent
Description: as §1

Danio rerio embryo/larva [10] = experiment: max % larvae with pigmentation defects across tested concentrations; higher = more toxic
Danio rerio embryo/larva [11] = experiment: max % larvae with edema across tested concentrations; higher = more toxic; extreme values may be limits of the assay
Danio rerio embryo/larva [12] = experiment: max % larvae with tail defects across tested concentrations; higher = more toxic; extreme values may be limits of the assay
Danio rerio embryo/larva [13] = experiment: max % larvae with blood pooling across tested concentrations; higher = more toxic; extreme values may be limits of the assay
Danio rerio embryo/larva [14] = experiment: max % larvae generally abnormal across tested concentrations; higher = more toxic; extreme values may be limits of the assay
Danio rerio embryo/larva [15] = experiment: max % larvae with spinal defects across tested concentrations; higher = more toxic; extreme values may be limits of the assay
Danio rerio embryo/larva [16] = experiment: max % larvae with abnormal position across tested concentrations; higher = more toxic; extreme values may be limits of the assay
Danio rerio embryo/larva [17] = experiment: max % larvae with craniofacial defects across tested concentrations; higher = more toxic; extreme values may be limits of the assay
Danio rerio embryo/larva [18] = experiment: max % larvae with uninflated swim bladder across tested concentrations; higher = more toxic; extreme values may be limits of the assay
[19] = max tested concentration (log10 uM): 2
[20] = max tested concentration (log10 uM): 1
[21] = max tested concentration (log10 uM): 0.477121
[22] = max tested concentration (log10 uM): 1.47712

Structure (SMILES)	BMC any abnormality (Danio rerio embryo/larva [4]) [µM]	max % larvae unhatched across tested concentrations (Danio rerio embryo/larva [5]) [%]	max % larvae dead across tested concentrations (Danio rerio embryo/larva [6]) [%]	max % larvae (Danio rerio embryo/larva [7]) [%]	BMC mortality (Danio rerio embryo/larva [8]) [µM]	BMC general abnormality (Danio rerio embryo/larva [9]) [µM]	max % larvae (Danio rerio embryo/larva [10]) [%]	max % larvae (Danio rerio embryo/larva [11]) [%]	max % larvae (Danio rerio embryo/larva [12]) [%]	max % larvae (Danio rerio embryo/larva [13]) [%]	max % larvae generally abnormal across tested concentrations (Danio rerio embryo/larva [14]) [%]	max % larvae (Danio rerio embryo/larva [15]) [%]	max % larvae (Danio rerio embryo/larva [16]) [%]	max % larvae (Danio rerio embryo/larva [17]) [%]	max % larvae (Danio rerio embryo/larva [18]) [%]	also measured
OCCC(F)(F)C(F)(F)C(F)(F)C(F)(F)C(F)(F)C(F)(F)F [2-(Perfluorohexyl)ethanol]	10.4	0	8.33	89.6												BMC edema (Danio rerio embryo/larva [1]; [19]): 3.37 µM; BMC craniofacial defects (Danio rerio embryo/larva [2]; [19]): 27.9 µM; BMC swim bladder non-inflation (Danio rerio embryo/larva [3]; [19]): 26.2 µM
N=C(N)C(F)(F)C(F)(F)C(F)(F)C(F)(F)C(F)(F)C(F)(F)C(F)(F)F [Perfluorooctanamidine]	19.5	0	100	100	19.5											
C=CC(=O)OCC(F)(F)C(F)(F)C(F)(F)COC(=O)C=C [1H,1H,5H,5H-Perfluoro-1,5-pentanediol diacrylate]	7.62	0	100	100	8.77											
OCCCCC(F)(F)C(F)(F)C(F)(F)C(F)(F)F [4:4 Fluorotelomer alcohol]	25.5	0	41.7	97.9	86.5											BMC edema (Danio rerio embryo/larva [1]; [19]): 25.8 µM; BMC craniofacial defects (Danio rerio embryo/larva [2]; [19]): 34.7 µM; BMC swim bladder non-inflation (Danio rerio embryo/larva [3]; [19]): 27.1 µM
OCC(F)(F)C(F)(F)C(F)(F)C(F)(F)C(F)(F)C(F)(F)C(F)(F)C(F)(F)CO [1H,1H,10H,10H-Perfluorodecane-1,10-diol]	4.08	0	100	100	19.5											BMC swim bladder non-inflation (Danio rerio embryo/larva [3]; [20]): 3.47 µM
O=C(O)CCC(F)(F)C(F)(F)C(F)(F)C(F)(F)C(F)(F)C(F)(F)F [3-(Perfluorohexyl)propanoic acid]	8.2	0	100	100	19.5											BMC edema (Danio rerio embryo/larva [1]; [20]): 9.01 µM
OCC(F)(F)C(F)(F)C(F)(F)C(F)(F)C(F)(F)C(F)(F)CO [1H,1H,8H,8H-Perfluorooctane-1,8-diol]	41.3	0	0	91.7												BMC edema (Danio rerio embryo/larva [1]; [19]): 50.7 µM; BMC craniofacial defects (Danio rerio embryo/larva [2]; [19]): 91 µM; BMC swim bladder non-inflation (Danio rerio embryo/larva [3]; [19]): 10.4 µM
C[N+](C)(C)CCCNS(=O)(=O)C(F)(F)C(F)(F)C(F)(F)C(F)(F)C(F)(F)C(F)(F)C(F)(F)C(F)(F)F	22.3	0	100	100	19.8											
C=CC(=O)OCC(F)(F)C(F)(F)C(F)(F)C(F)(F)COC(=O)C=C [1H,1H,6H,6H-Perfluorohexane-1,6-diol diacrylate]	1.52	0	100	100	8.28											BMC edema (Danio rerio embryo/larva [1]; [20]): 8.94 µM; BMC swim bladder non-inflation (Danio rerio embryo/larva [3]; [20]): 2.81 µM
O=C(O)C(F)(F)C(F)(F)C(F)(F)C(F)(F)C(F)(F)C(F)(F)C(F)(F)C(F)(F)C(F)(F)C(F)(F)F [Perfluoroundecanoic acid]	2.94	0	100	100	14.5											BMC edema (Danio rerio embryo/larva [1]; [21]): 2.74 µM
O=C(O)C(F)(F)C(F)(F)C(F)(F)C(F)(F)C(F)(F)C(F)(F)C(F)(F)C(F)(F)C(F)(F)C(F)F [11-H-Perfluoroundecanoic acid]	12.9	0	100	100	11.2											BMC edema (Danio rerio embryo/larva [1]; [22]): 12.6 µM
CNS(=O)(=O)C(F)(F)C(F)(F)C(F)(F)C(F)(F)C(F)(F)C(F)(F)C(F)(F)C(F)(F)F [N-Methylperfluorooctanesulfonamide] (max tested concentration (log10 uM): 2)						0.968	0	36.4	0	0	50	0	8.33	18.2	90.9	
O=C(O)C(F)(F)C(F)(F)C(F)(F)C(F)(F)C(F)(F)C(F)(F)C(F)(F)C(F)(F)Cl [9-Chloro-perfluorononanoic acid] (max tested concentration (log10 uM): 2)						9.23	0	100	75	41.7	100	50	25	100	100	
O=C(CC(=O)C(F)(F)C(F)(F)C(F)(F)F)c1cccs1 [(Perfluorobutyryl)-2-thenoylmethane]	3.11	0	100	100	6.44											
OC(C(F)(F)F)(C(F)(F)F)C(O)(C(F)(F)F)C(F)(F)F [Perfluoropinacol] (max tested concentration (log10 uM): 0.477121)						2.52	0	50	0	0	50	0	0	50	100	
OCC(F)(F)C(F)(F)C(F)(F)C(F)(F)C(F)(F)C(F)(F)CO [1H,1H,8H,8H-Perfluorooctane-1,8-diol] (max tested concentration (log10 uM): 2)						50.1	0	50	2.08	0	52.1	8.33	8.33	25	87.5	
CCNS(=O)(=O)C(F)(F)C(F)(F)C(F)(F)C(F)(F)C(F)(F)C(F)(F)C(F)(F)C(F)(F)F [N-Ethylperfluorooctane sulfonamide]	2.37	0	100	100	19.5											BMC edema (Danio rerio embryo/larva [1]; [20]): 2.88 µM; BMC swim bladder non-inflation (Danio rerio embryo/larva [3]; [20]): 3.13 µM
FC(F)(F)C(F)(F)C(F)(F)C(F)(F)C(F)(F)CCI [1-Iodo-1H,1H,2H,2H-perfluoroheptane] (max tested concentration (log10 uM): 2)						31.4	0	35.7	7.14	0	42.9	4.17	10.7	14.3	35.7	
NS(=O)(=O)C(F)(F)C(F)(F)C(F)(F)C(F)(F)C(F)(F)C(F)(F)F [Perfluorohexanesulfonamide] (max tested concentration (log10 uM): 0.477121)						1.66	0	85	10	0	85	5	30	70	100	
NS(=O)(=O)C(F)(F)C(F)(F)C(F)(F)C(F)(F)C(F)(F)C(F)(F)C(F)(F)C(F)(F)F [Perfluorooctanesulfonamide] (max tested concentration (log10 uM): 0)						0.381	0	37.5	0	16.7	41.7	0	8.33	8.33	50	
O=C(O)C(F)(F)C(F)(F)C(F)(F)C(F)(F)C(F)(F)C(F)(F)C(F)(F)C(F)(F)F [Perfluorononanoic acid] (max tested concentration (log10 uM): 2)						28	0	75	50	16.7	75	25	37.5	100	100	
FC(F)(I)C(F)(F)C(F)(F)C(F)(F)I [Perfluoro-1,4-diiodobutane]	14.8	0	16.7	70.8												BMC edema (Danio rerio embryo/larva [1]; [19]): 20.6 µM; BMC craniofacial defects (Danio rerio embryo/larva [2]; [19]): 74.2 µM; BMC swim bladder non-inflation (Danio rerio embryo/larva [3]; [19]): 25.6 µM
FC(F)(I)C(F)(F)C(F)(F)C(F)(F)I [Perfluoro-1,4-diiodobutane] (max tested concentration (log10 uM): 2)						20.6	0	58.3	20.8	20	58.3	16.7	16.7	50	66.7	
O=S(=O)(O)C(F)(F)C(F)(F)C(F)(F)C(F)(F)C(F)(F)C(F)(F)C(F)(F)C(F)(F)F [Perfluorooctanesulfonic acid] (max tested concentration (log10 uM): 1)						7.82	0	43.8	18.8	0	75	6.25	25	50	62.5	
CCNS(=O)(=O)C(F)(F)C(F)(F)C(F)(F)C(F)(F)C(F)(F)C(F)(F)C(F)(F)C(F)(F)F [N-Ethylperfluorooctane sulfonamide] (max tested concentration (log10 uM): 1)						2.91	0	41.7	0	16.7	58.3	0	8.33	8.33	83.3	
O=C(O)C(F)(F)OC(F)(F)C(F)(F)OC(F)(F)C(F)(F)C(F)(F)C(F)(F)F [Perfluoro-3,6-dioxadecanoic acid]		0	66.7	91.7	75.3											
OC(C(F)(F)F)(C(F)(F)F)C(O)(C(F)(F)F)C(F)(F)F [Perfluoropinacol]	1.94	0		100												BMC edema (Danio rerio embryo/larva [1]; [21]): 2.52 µM; BMC craniofacial defects (Danio rerio embryo/larva [2]; [21]): 2.47 µM; BMC swim bladder non-inflation (Danio rerio embryo/larva [3]; [21]): 2.28 µM
OCCC(F)(F)C(F)(F)C(F)(F)C(F)(F)C(F)(F)C(F)(F)C(F)(F)C(F)(F)F [2-(Perfluorooctyl)ethanol]		0	25	58.3	89											
O=C(O)C(F)(F)C(F)(F)C(F)(F)C(F)(F)C(F)(F)C(F)(F)C(F)(F)C(F)(F)C(F)(F)F [Perfluorodecanoic acid]	9.34	0	100	100	11.2											BMC swim bladder non-inflation (Danio rerio embryo/larva [3]; [22]): 10.1 µM
FC(F)(I)C(F)(F)C(F)(F)C(F)(F)C(F)(F)C(F)(F)I [1,6-Diiodoperfluorohexane] (max tested concentration (log10 uM): 2)						4.24 ± 2.6	10 ± 14	67.5 ± 3.5	7.5 ± 11	56.7 ± 33	95 ± 7.1	33.3 ± 18	54.6 ± 0.59	90	100	
